The text below walks through data of ChEMBL document CHEMBL4840339, “A naphthyridine-indole ligand for selective stabilization of G-quadruplexes and conformational conversion of hybrid topology” (Bioorg Med Chem, 2021).

Calls of active or inactive are those of the source. No cut-off for these calls is given here.

Assay [1] relates to Quadruplex DNA. The assay can be described thus: Binding affinity to Tel26 G4 quadruplex DNA (unknown origin) assessed as conversion from hybrid topology to parallel topology by measuring positive signal at 266 nm at 10 to 100 uM by circular dichroism spectroscopy. Format: nucleic-acid assay. Conditions: dose 10-100 µM. For orientation: Circular dichroism is widely used to follow secondary structure.

Assay [2] concerns Quadruplex DNA. The assay can be described thus: Binding affinity to Tel26 G4 quadruplex DNA (unknown origin) assessed as positive signal at 266 nm measured up to 90 deg C at 100 uM by variable temperature circular dichroism spectroscopy. Format: nucleic-acid assay.
Assay [3] concerns Quadruplex DNA. Nature of the assay: Stabilization of Tel26 G4 quadruplex DNA (unknown origin) assessed as thermal stability by measuring increase in melting temperature at 100 uM by variable temperature circular dichroism spectroscopy. Format: nucleic-acid assay.
Assay [4] has as its system Quadruplex DNA. The assay can be described thus: Stabilization of Tel26 G4 quadruplex DNA (unknown origin) assessed as thermal stability by measuring increase in melting temperature by UV melting assay. Conditions: dose 5.0 µM. Format: nucleic-acid assay.
Assay [5] has as its system HeLa. The assay can be described thus: Cytotoxicity against human HeLa cells assessed as […] in cell viability measured after 48 hrs by MTT assay. Format: functional, cell-based. (Tetrazolium dyes change colour on reduction, which living cells bring about.)
Assay [6] relates to HeLa. Nature of the assay: Induction of apoptosis in human HeLa cells assessed as viable cells at 6 uM after 24 hrs by Annexin V-FITC/PI staining based flow cytometric analysis (reference value: 95.8 %). Format: functional. Conditions: read-out: Activity.
The test system of assay [7] is HeLa. The assay can be described thus: Induction of apoptosis in human HeLa cells assessed as early apoptotic cells at 6 uM after 24 hrs by Annexin V-FITC/PI staining based flow cytometric analysis (reference value: 3.28 %). Format: functional. (In general: A flow cytometer gives signals particle by particle.)
Assay [8] deals with HeLa. The assay can be described thus: Induction of apoptosis in human HeLa cells assessed as late apoptotic cells at 6 uM after 24 hrs by Annexin V-FITC/PI staining based flow cytometric analysis (reference value: 0.42 %). Format: functional.
The test system of assay [9] is HeLa. The assay can be described thus: Induction of apoptosis in human HeLa cells assessed as necrotic cells at 6 uM after 24 hrs by Annexin V-FITC/PI staining based flow cytometric analysis (reference value: 0.42 %). Format: functional.
The subject of assay [10] is HeLa. Nature of the assay: Induction of cell cycle arrest in human HeLa cells assessed as G0/1 cell population level at 6 uM incubated for 24 hrs by propidium iodide /RNase staining based flow cytometry (reference value: 38 %). Format: functional.
Assay [11] concerns HeLa. Nature of the assay: Induction of cell cycle arrest in human HeLa cells assessed as S cell population level at 6 uM incubated for 24 hrs by propidium iodide /RNase staining based flow cytometry (reference value: 36 %). Format: functional.
Assay [12] relates to HeLa. Nature of the assay: Induction of cell cycle arrest in human HeLa cells assessed as G2/M cell population level at 6 uM incubated for 24 hrs by propidium iodide /RNase staining based flow cytometry (reference value: 36 %). Format: functional.
Assay [13] concerns HeLa. Nature of the assay: Induction of apoptosis in human HeLa cells assessed as increase in caspase 3 level at 4 to 6 uM measured after 48 hrs. Conditions: dose 4-6 µM. Format: functional, cell-based.
The test system of assay [14] is Quadruplex DNA. The assay can be described thus: Stabilization of G4 quadruplex DNA in human HeLa cells assessed as BG4 foci formation at 6 uM measured after 24 hrs by confocal microscopic analysis. Format: cell-based.
Assay [15] relates to Quadruplex DNA. The assay can be described thus: Binding affinity to Bcl-2 G4 quadruplex DNA (unknown origin) assessed as conversion from hybrid topology to parallel topology by measuring positive signal at 266 nm at 10 to 100 uM by circular dichroism spectroscopy. Format: nucleic-acid assay. Conditions: dose 10-100 µM.
The test system of assay [16] is Quadruplex DNA. Nature of the assay: Binding affinity to Tel23 G4 quadruplex DNA (unknown origin) assessed as conversion from hybrid topology to parallel topology by measuring positive signal at 266 nm at 10 to 100 uM by circular dichroism spectroscopy. As to conditions: dose 10-100 µM. Format: nucleic-acid assay.
The test system of assay [17] is Quadruplex DNA. Nature of the assay: Binding affinity to c-MYC G4 quadruplex DNA (unknown origin) assessed as conversion from hybrid topology to parallel topology by measuring positive signal at 266 nm at 10 to 100 uM by circular dichroism spectroscopy. As to conditions: dose 10-100 µM. Format: nucleic-acid assay.
The subject of assay [18] is Quadruplex DNA. Nature of the assay: Binding affinity to c-KIT1 G4 quadruplex DNA (unknown origin) assessed as conversion from hybrid topology to parallel topology by measuring positive signal at 266 nm at 10 to 100 uM by circular dichroism spectroscopy. Format: nucleic-acid assay. As to conditions: dose 10-100 µM.
Assay [19] relates to Quadruplex DNA. Nature of the assay: Binding affinity to G4 quadruplex DNA (unknown origin) assessed as assessed as compound-DNA complex formation by 1H-NMR spectra analysis. Format: nucleic-acid assay.
The subject of assay [20] is Quadruplex DNA. The assay can be described thus: Binding affinity to ds26 non-G4 DNA (unknown origin) assessed as conversion from hybrid topology to parallel topology by measuring positive signal at 266 nm at 10 to 100 uM by circular dichroism spectroscopy. Format: nucleic-acid assay. As to conditions: dose 10-100 µM.
For the next assay, the system named is dsDNA. The assay can be described thus: Stabilization of dsDNA (unknown origin) assessed as thermal stability by measuring increase in melting temperature by UV melting assay. Format: nucleic-acid assay.
Assay [21] concerns Quadruplex DNA. The assay can be described thus: Stabilization of F-Tel21-T G4 quadruplex DNA (unknown origin) assessed as thermal stability by measuring normalized intensity at 2 uM by FRET assay. Format: nucleic-acid assay.
The test system of assay [22] is Quadruplex DNA. Nature of the assay: Stabilization of F-Tel21-T G4 quadruplex DNA (unknown origin) assessed as thermal stability by measuring normalized intensity in presence of 10 to 50 eq dsDNA at 2 uM by FRET-based competition assay. Format: nucleic-acid assay.
In assay [23] the target is Quadruplex DNA. Nature of the assay: Displacement of thiazole orange from Tel26 G4 quadruplex DNA (unknown origin) assessed as relative affinity by fluorescent intercalator displacement assay. Format: nucleic-acid assay.

What is called ΔTm is the shift of the melting midpoint relative to a reference. As a reminder, the IC50 is the concentration at which inhibition is half-maximal.

Regarding `CN(C)CCOc1ccc2c(ccn2-c2ccc3ccc(-n4ccc5cc(OCCN(C)C)ccc54)nc3n2)c1`, the result in the assay on Quadruplex DNA [1], with Quadruplex DNA [2], with Quadruplex DNA [4], in the assay on HeLa [13], with Quadruplex DNA [14] and in the assay on Quadruplex DNA [15] was Active. In addition, the outcome in the assay on Quadruplex DNA [16], in the assay with Quadruplex DNA [19], in the assay on Quadruplex DNA [21] and in the assay with Quadruplex DNA [22] was Active. Also, in the assay on Quadruplex DNA [3], the ΔTm was determined as 37 °C. The IC50 in the assay on HeLa [5] was determined as 4.3 µM; on Quadruplex DNA [23], 6.7 µM. The viability at 6 µM in the assay on HeLa [6] is 61.8%. Moreover, the Activity was 20.1% in the assay on HeLa [7]; 16.6% with HeLa [8]; 1.49% in the assay on HeLa [9]; 57% in the assay with HeLa [10]; 33% with HeLa [11]; 10% in the assay on HeLa [12]. Further, the outcome in the assay with Quadruplex DNA [17], with Quadruplex DNA [18], in the assay with Quadruplex DNA [20] and with dsDNA was inactive.
